Reference: patent US20250179047A1, “5-[7-(3,4-DIHYDRO-1H-ISOQUINOLINE-2-CARBONYL)-1,2,3,4 TETRAHYDROISOQUINOLIN-6-YL]-1H-PYRROLE-3-CARBOXAMIDE DERIVATIVES, PHARMACEUTICAL COMPOSITIONS CONTAINING THEM AND THEIR USES AS PRO-APOPTOTIC AGENTS” (LES LABORATOIRES SERVIER, priority 2022, published 2025)

Tests used:
BCLXL WT = BCLXL WT (Homo sapiens (Human), UniProt Q07817); test: TR-FRET competitive binding assay, BCLXL WT; conditions: for Ki: BCLXL WT, Ki determined from IC50, read-out: TR_FRET EKI BclxL; for TR_FRET EKI BCLxL/WT selectivty ratio: ratio Ki BCLxL / Ki BCL2 WT
In short: (§1)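 Terbium-labelled N-terminal Halo-fusion BCL2 or BCLXL (E. coli), 0.5 nM, competed against fluorescein-labelled PUMA peptide (2 or 20 nM) for 2 h at 23° C in 50 mM Hepes pH 7.5, 150 mM NaCl, 5% DMSO. TR-FRET 520/495 nm ratio gave IC50 by four-parameter fit; Ki derived from IC50.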

BCL2 F104I = BCL2 F104I (Homo sapiens, UniProt P10415, F104I); test: TR-FRET competitive binding assay, BCL2 F104I; conditions: Ki determined from IC50, read-out: TR_FRET EKI_Bcl2 F104I
In short: as §1

KMS-12-PE Bcl-2 WT = test: In vitro cytotoxicity CellTiter-Glo 48 h, KMS-12-PE Bcl-2 WT; assay type: cell-based; conditions: C50 = concentration needed to reach 50% of the cellular viability
In short: (§2)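 Potency is expressed as C50, the compound concentration at which viability of engineered KMS-12-PE cells (Bcl-2 wild type or G101V) falls to 50%, determined from CellTiter-Glo luminescence after 48 h of treatment over 11 concentrations.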

BCL2 D111A = BCL2 D111A (Homo sapiens, UniProt P10415, D111A); test: TR-FRET competitive binding assay, BCL2 D111A; conditions: Ki determined from IC50, read-out: TR_FRET EKI_Bcl2 D111A
In short: as §1

BCL2 G101V [1] = test: TR-FRET competitive binding assay, BCL2 G101V; parameters: species or system human; conditions: ratio Ki BCL2 G101V / Ki BCL2 WT
In short: as §1

BCL2 G101V [2] = molecular target: BCL2 G101V (Homo sapiens, UniProt P10415, G101V); test: TR-FRET competitive binding assay, BCL2 G101V; conditions: BCL2 G101V; Ki determined from IC50; read-out: TR_FRET EKI_Bcl2 G101V
In short: as §1

CYP3A4 = CYP3A4 (Homo sapiens (Human), UniProt P08684); test: CYP3A4 inhibition determination in hepatic human microsomes; assay type: in vitro ADME; conditions: LC/MS-MS of specific metabolite
Method: The inhibitory potential was determined on CYP3 Å4 enzyme using hepatic human microsomes. A range of concentrations (adapted based on the solubility) of the tested compound were incubated in presence of a substrate having a specific metabolite of CYP3 Å4 enzyme.
Then, the formation of the metabolite was quantified using LC/MS-MS analysis and a curve corresponding to the concentration of the metabolite in function of the concentration of the test compound allowed to the calculation of the IC50 value.

BCL2 WT = BCL2 WT (Homo sapiens (Human), UniProt P10415); test: TR-FRET competitive binding assay, BCL2 WT; conditions: Ki determined from IC50, read-out: TR_FRET EKI_Bcl2 WT
In short: as §1

BCL2 D103Y = BCL2 D103Y (Homo sapiens, UniProt P10415, D103Y); test: TR-FRET competitive binding assay, BCL2 D103Y; conditions: Ki determined from IC50, read-out: TR_FRET EKI_Bcl2 D103Y
In short: as §1

KMS-12-PE Bcl-2 G101V = test: In vitro cytotoxicity CellTiter-Glo 48 h, KMS-12-PE Bcl-2 G101V; assay type: cell-based; conditions: for Ratio (G101V/WT): C50 KMS-12-PE Bcl-2 G101V over C50 KMS-12-PE Bcl-2 WT; for IC50: CellTiter-Glo, 48 h, C50 = concentration needed to reach 50% of the cellular viability
In short: as §2

CYP3A4, sequence (P08684 whole entry): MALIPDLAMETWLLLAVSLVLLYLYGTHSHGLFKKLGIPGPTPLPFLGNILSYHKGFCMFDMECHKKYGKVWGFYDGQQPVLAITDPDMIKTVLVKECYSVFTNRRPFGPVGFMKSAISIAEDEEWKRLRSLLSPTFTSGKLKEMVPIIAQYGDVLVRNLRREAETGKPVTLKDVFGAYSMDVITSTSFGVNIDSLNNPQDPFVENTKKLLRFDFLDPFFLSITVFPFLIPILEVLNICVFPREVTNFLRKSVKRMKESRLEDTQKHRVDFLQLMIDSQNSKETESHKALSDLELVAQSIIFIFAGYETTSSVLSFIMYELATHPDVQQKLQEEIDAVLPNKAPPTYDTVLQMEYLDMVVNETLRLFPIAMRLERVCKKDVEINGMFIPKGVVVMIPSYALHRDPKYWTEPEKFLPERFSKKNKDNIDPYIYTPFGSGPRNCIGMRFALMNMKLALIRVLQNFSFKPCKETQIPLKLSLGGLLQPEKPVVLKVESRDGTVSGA
BCLXL WT, sequence (Q07817 other isoform, or with tags, fused parts or gaps): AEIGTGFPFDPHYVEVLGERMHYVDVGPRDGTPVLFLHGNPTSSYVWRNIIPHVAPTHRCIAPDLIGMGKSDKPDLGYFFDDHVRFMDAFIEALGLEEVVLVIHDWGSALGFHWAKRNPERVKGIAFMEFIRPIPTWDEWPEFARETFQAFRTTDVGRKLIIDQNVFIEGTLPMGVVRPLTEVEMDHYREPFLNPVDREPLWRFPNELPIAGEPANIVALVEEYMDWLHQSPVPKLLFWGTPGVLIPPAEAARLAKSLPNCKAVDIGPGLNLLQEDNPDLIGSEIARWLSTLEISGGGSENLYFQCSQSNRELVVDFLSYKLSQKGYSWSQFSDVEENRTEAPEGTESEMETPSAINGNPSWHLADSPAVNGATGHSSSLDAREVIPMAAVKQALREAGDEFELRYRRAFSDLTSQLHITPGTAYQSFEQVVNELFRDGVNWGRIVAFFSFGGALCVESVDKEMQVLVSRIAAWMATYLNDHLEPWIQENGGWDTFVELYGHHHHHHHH

Ki (BCLXL WT)	TR_FRET EKI BCLxL/WT selectivty ratio (BCLXL WT)	Ki (BCL2 F104I)	Ki (BCL2 D111A)	TR_FRET EKI G101V/WT selectivty ratio (BCL2 G101V [1])	Ki (BCL2 G101V [2])	IC50 (CYP3A4)	Ki (BCL2 WT)	Ki (BCL2 D103Y)	Structure (SMILES)	IC50 (KMS-12-PE Bcl-2 WT)	Ratio (G101V/WT) (KMS-12-PE Bcl-2 G101V)	IC50 (KMS-12-PE Bcl-2 G101V)	IC50 (KMS-12-PE Bcl-2 WT; Homo sapiens, KMS-12-PE)	IC50 (KMS-12-PE Bcl-2 G101V; Homo sapiens, KMS-12-PE)
3.9 nM	90.7	0.25 nM	0.12 nM	5.5	0.2 nM	> 5000 nM	0.04 nM	0.15 nM	Cc1c(N(C(=O)c2cc(-c3cc4c(cc3C(=O)N3Cc5ccccc5C[C@H]3CN3CCCCC3)CN(C(=O)Cc3ccc(OCCN5CCOC(C)C5)cc3F)CC4)n(C)c2C)c2ccc(O)cc2)cc(C#N)n1C (single isomer, unassigned) [Example 109, N-(5-cyano-1,2-dimethyl-1H-pyrrol-3-yl)-5-[2-(2-{2-fluoro-4-[2-((2R or S)-2-methylmorpholin-4-yl)ethoxy]phenyl}acetyl)-7-[(3S)-3-[(piperidin-1-yl)methyl]-1,2,3,4-tetrahydroisoquinoline-2-carbonyl]-1,2,3,4-tetrahydroisoquinolin-6-yl]-N-(4-hydroxyphenyl)-1,2-dimethyl-1H-pyrrole-3-carboxamide]	0.0048 µM	4.38	0.022 µM	–	–
2.4 nM	60.0	0.25 nM	0.08 nM	6.8	0.3 nM	18000 nM	0.04 nM	0.17 nM	Cc1c(N(C(=O)c2cc(-c3cc4c(cc3C(=O)N3Cc5ccccc5C[C@H]3CN(C)C(C)C)CN(C(=O)Cc3ccc(OCCN5CCOCC5)cc3F)CC4)n(C)c2C)c2ccc(O)cc2)cc(C#N)n1C [Example 91, N-(5-cyano-1,2-dimethyl-1H-pyrrol-3-yl)-5-[2-(2-{2-fluoro-4-[2-(morpholin-4-yl)ethoxy]phenyl}acetyl)-7-[(3S)-3-{[methyl(propan-2-yl)amino]methyl}-1,2,3,4-tetrahydroisoquinoline-2-carbonyl]-1,2,3,4-tetrahydroisoquinolin-6-yl]-N-(4-hydroxyphenyl)-1,2-dimethyl-1H-pyrrole-3-carboxamide]	–	5.96	–	0.0084 µM	0.0498 µM
2.6 nM	68.4	0.23 nM	0.09 nM	6.3	0.2 nM	> 5000 nM	0.04 nM	0.16 nM	Cc1c(N(C(=O)c2cc(-c3cc4c(cc3C(=O)N3Cc5ccccc5C[C@H]3CN3CCCCC3)CN(C(=O)Cc3ccc(OCCN5CCOCC5)cc3)CC4)n(C)c2C)c2ccc(O)cc2)cc(C#N)n1C [Example 67, N-(5-cyano-1,2-dimethylpyrrol-3-yl)-N-(4-hydroxyphenyl)-1,2-dimethyl-5-[2-(2-{4-[2-(morpholin-4-yl)ethoxy]phenyl}acetyl)-7-{[(3S)-3-(piperidin-1-ylmethyl)-3,4-dihydro-1H-isoquinolin-2-yl]carbonyl}-3,4-dihydro-1H-isoquinolin-6-yl]pyrrole-3-carboxamide]	–	5.2	–	0.0113 µM	0.0562 µM
